Measurements reported in patent US6451818B1, “Therapeutic use of 1,6-dimethyl-8β-hydroxymethyl-10α-methoxyergoline” (Aventis Pharma S.A., priority 1998, dated 2002).

Tests used:
[1] = system: motor neurons (co-cultures of astrocyte monolayers and motor neurons); assay: Motor neuron survival, co-cultures of astrocyte monolayers and motor neurons; assay type: cell-based, rat; conditions: vehicle alone 43.9 ± 4
Experimental: (§1) The motor-neuron-enriched cultures are prepared using the centrifugation method which was described by R. L. SCHNAAR and A. E. SCHAFFNER, J. Neurosci., 1, 204-217 (1981) and modified by W. CAMU and C. E. HENDERSON, J. Neurosci. Methods, 44, 59-70 (1992). The motor neurons are spread, at a density of 2500 cells per plate, on 35 mm culture plates which have previously been coated with laminin/ornithine in accordance with the method of A. G. ESTEVEZ et al., J. Neurosci., 18 (3), 923-931 (1998). The cultures are then maintained in L15 medium (GIBCO BRL) containing sodium bicarbonate (22 mM), conalbumin (0.1 mg/ml), putrescine (0.1 mM), insulin (5 μg/ml), sodium selenite ([…]), glucose (20 mM), progesterone (21 nM), penicillin (100 IU/ml) and streptomycin (100 μg/ml).
(§2) The astrocytes are obtained from young, one-day-old rats using the slightly modified method of R. P. SANETO and J. DE VELLIS as described in Neurochemistry a practical approach (A. J. TURNER and H. A. St JOHN) IRL Press, Oxford-Washington D.C., pp. 27-63. The spinal cords are dissected out under sterile conditions and freed of meninges and dorsal ganglia. Five to ten spinal cords are transferred into PBS (phosphate buffered saline) and cut before being incubated at 37° C. for 25 minutes in PBS to which 0.25% trypsin has been added. The enzymatic treatment is stopped by adding 10 ml of Dulbecco's modified Eagle medium (DMEM), to which 10% fetal calf serum (FCS) has been added, and the cells are collected by centrifugation. Another step of mechanical dissociation is performed using the end of a 1 ml pipette. The cells are spread, at a density of 1.5-2×10^6 cells per 25 cm^2 of culture medium, in DMEM containing 10% FCS. After 2 days in vitro, the cultures are fed every day. When a visible monolayer of cells has been completed, the cultures are stirred at 250 rpm for 48 hours and, on the following day, the monolayers are treated with cytosine arabinoside (10^−5 M) for 48 hours. The astrocyte monolayers are then amplified to a density of five on 35 mm culture plates for initially 25 cm^2 culture flasks.
The spinal astrocyte cultures consist, to an extent of more than 98%, of flat, polygonal cells which are immunoreactive for the glial fibrillar acid protein (GFAP). The monolayers are exposed to the product to be tested and then incubated with the motor neuron medium in order to obtain a conditioned culture medium. […]
(§3) The number of motor neurons is estimated by counting the labelled cells in an area of 0.4-1 cm^2 under a microscope which enlarges 200 times. In all cases, the values are expressed as a percentage of the number of motor neurons which are present in cultures maintained using trophic factors. […]

[2] = system: motor neurons (astrocyte-conditioned medium); assay: Motor neuron survival in medium conditioned by treated spinal astrocyte monolayers (neurotrophic activity produced by spinal astrocytes); assay type: cell-based, rat; conditions: % of motor neurons in cultures with trophic factors
Experimental: as §1
as §2, with “When a visible monolayer of cells has been completed, the cultures are stirred at 250 rpm for 48 hours and, on the following day, the monolayers are treated with cytosine arabinoside (10^−5 M) for 48 hours. The astrocyte monolayers are then amplified to a density of five on 35 mm culture plates for initially 25 cm^2 culture flasks.” left out
as §3

[3] = system: motor neurons (astrocyte/motor neuron co-cultures); assay: Neuronal survival in astrocyte/motor neuron co-cultures; assay type: cell-based, rat; conditions: for % of labelled motor neurons, very large motor neurons: vehicle alone = 100 ± 2.8; for % of labelled motor neurons, all the motor neurons: vehicle alone = 100 ± 9.4
Experimental: as §1, §2
The cells are fixed in 4% paraformaldehyde and 0.1% glutaraldehyde in PBS (pH 7.4 and at 4° C. for 15 minutes) and in a cold methanolic solution. The cultures are then washed and the nonspecific sites are blocked with 10% goat serum and 2% bovine serum albumin (BSA) in PBS and treated for immunochemistry using antibodies against the p75 weak affinity neurotrophin receptor or a 200 kD neurofilament protein (Amersham) using the manufacturer's instructions and applying the avidin-biotin-DAB/hydrogen peroxide enhancement reaction.
The astrocytes are treated with 1,6-dimethyl-8β-hydroxymethyl-10α-methoxyergoline in the following manner: the product is dissolved in methanol, sterilized by filtration and used immediately after preparation. The treatment which is applied to the enriched motor neuron cultures is effected by adding aliquots of solutions of the products to be tested to the L15 medium by spreading. The astrocyte monolayers are exposed to the vehicle or to the solutions of the compound to be tested for 24 hours and at different concentrations. […]
as §3

[4] = system: trophic factor-deprived motor neurons; assay: Neuronal death in motor-neuron-enriched cultures in the absence of trophic factor; assay type: cell-based
Experimental: as §1
More than 70% of the cells are immunoreactive for the neurotrophin p75 receptor and the Islet ½ markers for spinal motor neurons. Approximately 70% of the motor neurons die by apoptosis 24 hours after the spreading if the culture is performed in the absence of a trophic factor. […]
as §3

SMILES: CO[C@]12C[C@@H](CO)CN(C)[C@@H]1Cc1cn(C)c3cccc2c13 [1,6-Dimethyl-8β-hydroxymethyl-10α-methoxyergoline]
- Motor neuron survival in % ([1]; tested product 1 nM): 42.5 ± 4%
- Motor neuron survival in % ([1]; tested product 10 nM): 48.9 ± 3 %
- Motor neuron survival in % ([1]; tested product 100 nM): 57.4 ± 4 %
- Motor neuron survival in % ([1]; tested product 1 μM): 68.7 ± 8 %
- Motor neuron survival in % ([2]; dilution of the astrocyte-conditioned medium 1:4, vehicle alone 59.9 ± 8): 90.6 ± 4.9 %
- Motor neuron survival in % ([2]; dilution of the astrocyte-conditioned medium 1:10, vehicle alone 45.4 ± 4.2): 74.8 ± 6.3 %
- Motor neuron survival in % ([2]; dilution of the astrocyte-conditioned medium 1:50, vehicle alone 36.9 ± 3.2): 49.6 ± 5.3 %
- % of labelled motor neurons, very large motor neurons ([3]; 0.1 μM): 122.6 ± 8.2 %
- % of labelled motor neurons, all the motor neurons ([3]; 0.1 μM): 123 ± 9.3 %
- % of labelled motor neurons, very large motor neurons ([3]; 1 μM): 117 ± 5.6 %
- % of labelled motor neurons, all the motor neurons ([3]; 1 μM): 158.9 ± 32 %
- % of labelled motor neurons, all the motor neurons ([3]; 10 μM): 137.5 ± 19 %
- Neuronal arborization and cell morphology [4]: remain well preserved
- Increase of the survival of trophic factor-deprived motor neurons ([4]; p<0.001): 60%
